Test results published in ChEMBL document CHEMBL1147966, “Remarkable drug-release enhancement with an elimination-based AB3 self-immolative dendritic amplifier” (Bioorg Med Chem, 2007).
pIC50: −log10 of the molar value.

What was measured:
MOLT-3 [1] = assay: Antitumor activity against human MOLT3 cells in presence of Penicillin-G-amidase after 72 hrs by XTT assay; assay type: functional, cell-based; details: MOLT-3, 72 h
MOLT-3 [2] = assay: Antitumor activity against human MOLT3 cells in absence of Penicillin-G-amidase after 72 hrs by XTT assay; assay type: functional, cell-based; details: MOLT-3, 72 h

O=C(Cc1ccccc1)Nc1ccc(COC(=O)Nc2c(COC(=O)NC(Cc3ccc(N(CCCl)CCCl)cc3)C(=O)O)cc(COC(=O)NC(C(=O)O)c3ccc(N(CCCl)CCCl)cc3)cc2COC(=O)NC(Cc2ccc(N(CCCl)CCCl)cc2)C(=O)O)cc1 (stereo not given)
pIC50 (MOLT-3 [1]): 6.30
pIC50 (MOLT-3 [2]): 4.00

CN(CCN(C)C(=O)Oc1c(COC(=O)NC(Cc2ccc(N(CCCl)CCCl)cc2)C(=O)O)cc(COC(=O)NC(C(=O)O)c2ccc(N(CCCl)CCCl)cc2)cc1COC(=O)NC(Cc1ccc(N(CCCl)CCCl)cc1)C(=O)O)C(=O)OCc1ccc(NC(=O)Cc2ccccc2)cc1 (stereo not given)
pIC50 (MOLT-3 [1]): 5.22
pIC50 (MOLT-3 [2]): 4.00

N[C@@H](Cc1ccc(N(CCCl)CCCl)cc1)C(=O)O [MELPHALAN]
pIC50 (MOLT-3 [1]): 6.52
